Test results as given in BindingDB's records for doi:10.1021/jm020951i (Uppsala University, 2003).

Key:
Experiment in all cases: Enzyme Inhibition Measurements
Plasmepsin II = Plasmepsin II (Plasmodium falciparum (isolate HB3), UniProt P46925); details: pH 4.5; 22 °C
Protocol: (§1) Enzyme activities were assayed by monitoring the hydrolysis of substrate in the presence or absence of inhibitor compounds. The hydrolysis was recorded as the increase in fluorescence intensity over a 10 min time period. IC50 values were obtained by assuming competitive inhibition and fitting the dose response data to the equation (Vi/V0) =1/ (1 + [I]/IC50)). The Ki was calculated by using Ki = IC50/ (1 + [S]/Km), and a Km value determined according to Michaelis-Menten.

Plasmepsin I = Plasmepsin I (Plasmodium falciparum, UniProt P39898); details: pH 4.5; 22 °C
Chain of Plasmepsin I (P39898 whole entry): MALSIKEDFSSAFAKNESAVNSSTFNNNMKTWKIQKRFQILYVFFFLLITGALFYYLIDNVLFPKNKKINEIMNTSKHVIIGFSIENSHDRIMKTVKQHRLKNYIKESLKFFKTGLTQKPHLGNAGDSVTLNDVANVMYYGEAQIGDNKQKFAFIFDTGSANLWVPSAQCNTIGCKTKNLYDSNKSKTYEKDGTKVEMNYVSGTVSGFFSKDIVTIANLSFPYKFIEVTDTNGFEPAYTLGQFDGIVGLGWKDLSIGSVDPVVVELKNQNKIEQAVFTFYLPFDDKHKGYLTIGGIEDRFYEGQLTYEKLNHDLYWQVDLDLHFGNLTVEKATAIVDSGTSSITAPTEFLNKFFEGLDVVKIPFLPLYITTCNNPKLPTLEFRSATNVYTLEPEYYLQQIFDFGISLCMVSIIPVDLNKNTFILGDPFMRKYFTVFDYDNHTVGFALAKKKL
Protocol: as §1

Cathepsin D = Cathepsin D (Homo sapiens, UniProt P07339)
Chain of Cathepsin D (P07339 65-162 limits assumed): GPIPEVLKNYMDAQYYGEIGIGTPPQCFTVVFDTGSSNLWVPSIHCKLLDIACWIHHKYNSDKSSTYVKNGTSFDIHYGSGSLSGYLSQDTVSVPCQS
Chain of Cathepsin D (P07339 169-412 limits assumed): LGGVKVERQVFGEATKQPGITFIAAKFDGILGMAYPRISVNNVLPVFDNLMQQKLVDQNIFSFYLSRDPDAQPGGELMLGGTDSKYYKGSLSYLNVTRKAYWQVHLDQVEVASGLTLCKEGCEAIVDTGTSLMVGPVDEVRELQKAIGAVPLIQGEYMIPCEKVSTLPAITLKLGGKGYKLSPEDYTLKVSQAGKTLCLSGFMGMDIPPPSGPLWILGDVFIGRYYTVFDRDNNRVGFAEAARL
Protocol: as §1

Chain of Plasmepsin II (P46925 whole entry): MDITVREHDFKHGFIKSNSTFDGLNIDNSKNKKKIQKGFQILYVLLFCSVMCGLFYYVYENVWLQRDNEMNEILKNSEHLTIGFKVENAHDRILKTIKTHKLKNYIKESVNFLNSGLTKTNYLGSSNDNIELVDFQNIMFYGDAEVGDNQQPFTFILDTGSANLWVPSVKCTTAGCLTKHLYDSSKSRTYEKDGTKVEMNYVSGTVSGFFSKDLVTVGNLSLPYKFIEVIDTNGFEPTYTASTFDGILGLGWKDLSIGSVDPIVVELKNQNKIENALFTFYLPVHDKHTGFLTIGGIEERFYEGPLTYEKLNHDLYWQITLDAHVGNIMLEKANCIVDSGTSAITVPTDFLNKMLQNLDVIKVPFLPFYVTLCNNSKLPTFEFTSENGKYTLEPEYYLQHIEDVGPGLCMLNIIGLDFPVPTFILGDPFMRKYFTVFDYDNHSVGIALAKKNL

Structure (SMILES)	Ki (Plasmepsin II) [nM]	Ki (Plasmepsin I) [nM]	Ki (Cathepsin D) [nM]
CC(C)[C@H](NC(=O)c1ccccn1)C(=O)N[C@@H](Cc1ccccc1)[C@@H](O)CN[C@H](Cc1ccccc1)C(N)=O [(2R,5S,6R)-3-Aza-2-benzyl-5-hydroxy-7-phenyl-6-[(picolyl-L-valinyl)amino]heptanoyl Amide]	3500	8000	
CC(C)C[C@H](NC[C@H](O)[C@H](Cc1ccccc1)NC(=O)[C@@H](NC(=O)c1ccccn1)C(C)C)C(N)=O [(2S)-2-{[(2S,3S)-2-hydroxy-3-[(2S)-3-methyl-2-(pyridin-2-ylformamido)butanamido]-4-phenylbutyl]amino}-4-methylpentanamide]	3300	2900	
Cc1ccc(-c2ccc(C[C@H](NC[C@H](O)[C@H](Cc3ccccc3)NC(=O)[C@@H](NC(=O)c3ccccn3)C(C)C)C(N)=O)cc2)cc1 [(2S)-N-[(2S,3S)-4-{[(1S)-1-carbamoyl-2-[4-(4-methylphenyl)phenyl]ethyl]amino}-3-hydroxy-1-phenylbutan-2-yl]-3-methyl-2-(pyridin-2-ylformamido)butanamide]			1700
CC(C)[C@H](NC(=O)c1ccccn1)C(=O)N[C@@H](Cc1ccccc1)[C@@H](O)CN[C@@H](Cc1ccc(-c2cccc(N)c2)cc1)C(N)=O [(2S,5S,6R)-3-Aza-2-[p-(m-aminophenyl)benzyl]-5-hydroxy-7-phenyl-6-[(picolyl-L-valinyl)amino]heptanoyl Amide]			1000
CC(C)[C@H](NC(=O)c1ccccn1)C(=O)N[C@@H](Cc1ccccc1)[C@@H](O)CN[C@@H](Cc1ccccc1)C(N)=O [(2S,5S,6R)-3-Aza-2-benzyl-5-hydroxy-7-phenyl-6-[(picolyl-L-valinyl)amino]heptanoyl Amide]	3200	2100	
COc1ccccc1-c1ccc(C[C@H](NC[C@H](O)[C@H](Cc2ccccc2)NC(=O)[C@@H](NC(=O)c2ccccn2)C(C)C)C(N)=O)cc1 [(2S,5S,6R)-3-Aza-5-hydroxy-2-[p-(o-methoxyphenyl)-benzyl]-7-phenyl-6-[(picolyl-L-valinyl)amino]heptanoyl Amide]			1700
